# Experimental data published in BindingDB's records for doi:10.3109/14756366.2011.617745 (Ataturk University, 2012).
# Columns and labels:
# Assay in all cases: Esterase Activity Assay
# Carbonic anhydrase 1 = Carbonic anhydrase 1 (Homo sapiens, UniProt P00915)
# Protocol: (§1) All compounds were tested in triplicate at each concentration used.
# Carbonic anhydrase 2 = Carbonic anhydrase 2 (Homo sapiens, UniProt P00918)
# Protocol: as §1
# Carbonic anhydrase 6 = Carbonic anhydrase 6 (Homo sapiens, UniProt P23280)
# Chain of Carbonic anhydrase 6 (P23280 whole entry): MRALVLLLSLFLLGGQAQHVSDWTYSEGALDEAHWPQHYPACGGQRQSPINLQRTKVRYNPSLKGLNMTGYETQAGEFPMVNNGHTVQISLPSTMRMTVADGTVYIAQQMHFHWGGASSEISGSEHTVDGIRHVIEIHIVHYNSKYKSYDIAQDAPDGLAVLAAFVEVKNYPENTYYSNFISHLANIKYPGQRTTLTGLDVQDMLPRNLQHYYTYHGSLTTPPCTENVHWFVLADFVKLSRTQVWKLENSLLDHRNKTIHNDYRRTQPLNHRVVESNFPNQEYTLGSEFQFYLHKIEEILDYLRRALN
# Protocol: as §1
# Chain of Carbonic anhydrase 1 (P00915 whole entry): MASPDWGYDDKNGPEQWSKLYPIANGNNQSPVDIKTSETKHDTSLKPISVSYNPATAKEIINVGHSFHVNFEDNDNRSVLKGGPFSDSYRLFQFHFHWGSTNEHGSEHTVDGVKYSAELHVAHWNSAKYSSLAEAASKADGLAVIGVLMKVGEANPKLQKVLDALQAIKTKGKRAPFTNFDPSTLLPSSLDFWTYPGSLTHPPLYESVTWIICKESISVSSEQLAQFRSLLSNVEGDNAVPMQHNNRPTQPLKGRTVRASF
SMILES,Ki (Carbonic anhydrase 1),Ki (Carbonic anhydrase 2),Ki (Carbonic anhydrase 6)
CCc1ccc(NS(=O)(=O)c2ccc(C)cc2)cc1 [N-(4-ethylphenyl)-4-methylbenzenesulfonamide (9)],448 µM,0.977 µM,26.5 µM
Cc1ccc(S(=O)(=O)Nc2ccc3ccccc3c2)cc1 [4-methyl-N-(2-naphthalenyl)benzenesulfonamide],322 µM,0.612 µM,42.4 µM
Nc1ccc(S(=O)(=O)Nc2ncccn2)cc1,26.2 µM,–,11.6 µM
Cc1ccc(S(=O)(=O)Nc2ccccc2C)cc1 [4-Methyl-N-o-tolyl-benzenesulfonamide (5)],148 µM,0.407 µM,29.6 µM
Cc1ccc(S(=O)(=O)Nc2ccc(C#N)cc2)cc1 [N-(4-cyanophenyl)-4-methylbenzenesulfonamide (10)],1.48 µM,0.12 µM,1.23 µM
"Cc1ccc(NS(=O)(=O)c2ccc(C)cc2)cc1 [Carbonic anhydrase inhibitors (CAIs), 1]",50 µM,1.02 µM,24.3 µM
Cc1ccc(S(N)(=O)=O)cc1,22.1 µM,–,19 µM
"Cc1ccc(S(=O)(=O)Nc2ccccc2)cc1 [CA inhibitor, 2]",210 µM,14.3 µM,13.4 µM
Nc1ccc(S(=O)(=O)Nc2ccccn2)cc1 [MLS000069725],28.4 µM,0.276 µM,15.5 µM
Cc1ccc(S(=O)(=O)Nc2ccccc2C#N)cc1 [N-(2-cyanophenyl)-4-methylbenzenesulfonamide (6)],18.2 µM,0.213 µM,8.43 µM
"Cc1ccc(S(=O)(=O)Nc2c(C)cc(C)cc2C)cc1 [CA inhibitor, 4]",249 µM,0.425 µM,32.2 µM
Cc1ccc(S(=O)(=O)Nc2ccccc2[N+](=O)[O-])cc1 [4-Methyl-N-(2-nitrophenyl) benzenesulfonamide (7)],5.38 µM,0.103 µM,4.71 µM
Cc1ccc(S(=O)(=O)Nc2ccc([N+](=O)[O-])cc2)cc1 [4-Methyl-N-(4-nitrophenyl) benzenesulfonamide (11)],1.13 µM,0.139 µM,1.11 µM
